According to PMC10150365 (Journal of Medicinal Chemistry, 2023):
≈ marks a conversion by molar mass, not a printed value. Where “and” joins values, the source holds several entries; their conditions need not be identical. Equal values may be shown once. Read-outs that look alike come from different tables or passages of the source. Marks after values point to notes of the source that are not given here.

Tests used:
[1] = Plasma protein binding and blood-to-plasma ratio; type: in vitro ADME, mouse
[2] = Free fraction in CellTiter-Blue assay medium (dialysis); type: in vitro ADME; conditions: dialysis from CellTiter-Blue assay medium; 90% CI
[3] = Plasma protein binding and blood-to-plasma ratio; conditions: for fub: BALB/c mouse blood, fub = fup/B:P; for Plasma, fup: BALB/c mouse, 90% CI
[4] = tested on: Caco-2
[5] = Plasma stability; type: in vitro ADME; conditions: pooled plasma, read-out: Compound remaining (% of 0 min); for remaining at 15 min, 1 µM: 37 °C
Protocol: AUCu0-24h was assumed from the mouse efficacy study. […] F=oral bioavailability and
Compd Species Compound remaining (% of 0 min)

[6] = in vitro; conditions: human; for recovery: Caco-2, pH 7.4, Recovery
[7] = Plasma protein binding and blood-to-plasma ratio; type: in vitro ADME, rat
[8] = Rat blood PK (Sprague-Dawley); type: in vivo; conditions: SD rats
[9] = in vitro; type: in vitro ADME; conditions: male, Sprague Dawley, rat, microsomes, pH 7.4; n = 1, fraction unbound assumed 1; read-out: Microsome Clint, rat (RLM)
[10] = tested on: P-gp-mediated efflux (CH1^doxR/CH1^WT); type: cell-based, human; conditions: ratio of geometric mean GI50 values, CellTiter-Blue
[11] = in vitro; type: in vitro ADME, mouse
[12] = tested on: SK-OV-3; assay: cells; type: cell-based, human; conditions: for GI50: Homo sapiens
[13] = physchem; conditions: pH 7.4
[14] = in vitro; type: in vitro ADME; conditions: both sexes, human, microsomes, pH 7.4; n = 1, fraction unbound assumed 1; read-out: Microsome Clint, human (HLM)
[15] = iv PK in CF1 wild-type and P-gp-knockout mice; type: in vivo, mouse; conditions: mouse, in vivo, iv, 5 mg/kg, read-out: Vss
[16] = tested on: P-gp; assay: iv PK in CF1 wild-type and P-gp-knockout mice; type: in vivo, mouse; conditions: for Cltb: 5 mg/kg iv, 90% CI, 5 mg/kg
[17] = in vitro; type: in vitro ADME; conditions: mouse
[18] = Mouse blood PK (BALB/c)
[19] = physchem; conditions: pH 7.4; remark: listed apart in the source
[20] = tested on: CH1^doxR; assay: CH1doxR growth inhibition, CellTiter-Blue; type: cell-based, human
[21] = tested on: CH1^WT; assay: CH1 WT growth inhibition, CellTiter-Blue; type: cell-based; conditions: Homo sapiens, CH1WT
[22] = tested on: PA1; conditions: PA1, 96 h
[23] = tested on: OVCAR5; conditions: OVCAR5, 96 h
[24] = tested on: human ovarian cancer cell lines; conditions: carboplatin N = 4 cell lines; 1 N = 9 cell lines
[25] = tested on: RMG-1; conditions: RMG-1, 96 h
[26] = female, BALB/c, mouse, in vivo, po, 5 mg/kg

## Cc1ccc(NC(=O)c2ccc3c(c2)OCCO3)cc1NC(=O)c1ccc2nc(OCCN3CCCC3)ccc2c1 [Compound 1]
[1]; athymic mouse blood, fub = fup/B:P
  fub: 0.015
[1]; athymic mouse, 90% CI
  Plasma, fup: 0.025 (0.031-0.020)
[2]
  Assay medium, fua: 0.47 (0.54-0.42)
[3]
  fub: 0.0083
  Plasma, fup: 0.010
[4]; geometric mean
  A2B: 2.4 nm/s
  B2A: 39 nm/s
[4]; individual experiments
  A2B + LY335979: 2.3 nm/s
  B2A: 23 nm/s and 46 nm/s and 55 nm/s
  B2A + LY335979: 15 nm/s
[5]; human plasma
  remaining at 15 min, 1 µM: 104%
  remaining at 30 min, 1 µM: 96.4%
  remaining at 60 min, 1 µM: 97%
  remaining at 120 min, 1 µM: 95.1%
[5]; mouse plasma
  remaining at 15 min, 1 µM: 97.8%
  remaining at 30 min, 1 µM: 91.3%
  remaining at 60 min, 1 µM: 93.3%
  remaining at 120 min, 1 µM: 85.9%
[6]; Caco-2, pH 7.4
  Papp A→B at 2 h, 10 µM: 2.4 ×10⁻⁶ cm/s
[6]; A2B + LY335979, geometric mean row
  recovery: 50%
[6]; A2B + LY335979, individual experiments
  recovery: 50%
[6]; A2B, geometric mean row
  recovery: 90%
[6]; A2B, individual experiments
  recovery: 90%
[6]; B2A + LY335979, geometric mean row
  recovery: 100%
[6]; B2A + LY335979, individual experiments
  recovery: 100%
[6]; B2A, geometric mean row
  recovery: 70%
[6]; B2A, individual experiments
  recovery: 70%
[7]; Sprague Dawley rat blood, fub = fup/B:P
  fub: 0.019
[7]; Sprague Dawley rat, 90% CI
  Plasma, fup: 0.029 (0.036-0.023)
[8]
  Fmax: 71%
[8]; iv
  iv Cltb: 20 mL/min/kg
[8]; po (Table S12)
  Free Cav^0–24h: 0.72 nM
[8]; Vss/fub
  Vdu: 230 L/kg
[8]; female, Sprague-Dawley (CD), rat, whole blood, 5 mg/kg, po
  Cmax: 63 nM
[8]; female, Sprague-Dawley (CD), rat, whole blood, po, 5 mg/kg
  bioavailability at 24 h: 11%
[8]; female, Sprague-Dawley (CD), rat, whole blood, iv, read-out: Vss
  Vd: 4.4 L/kg
[8]; female, Sprague-Dawley, rat, whole blood, 5 mg/kg, po
  Tmax: > 6 h
[8]; female, Sprague-Dawley, rat, whole blood, 5 mg/kg, terminal, from iv dose
  half-life: 192 min
[8]; female, Sprague-Dawley, rat, whole blood, po, 5 mg/kg, po, t = 24 h, read-out: po AUC^0–t
  AUC: 0.84 µM·h

## Cc1ccc(NC(=O)c2ccc3c(c2)OCCO3)cc1NC(=O)c1ccc2nc(CN3CCN(C(C)C)CC3)ccc2c1 [Compound 16, N-(5-(2,3-Dihydrobenzo[b][1,4]dioxine-6-carboxamido)-2-methylphenyl)-2-((4-isopropylpiperazin-1-yl)methyl)quinoline-6-carboxamide]
[9]
  microsomal CLint at 0.75 h, 1 µM: 7 µL/min/mg
[10]
  CH1^doxR/CH1^WT (fold resistance): 8.4
[11]; male, CD1, mouse, microsomes, pH 7.4, n = 1, fraction unbound assumed 1, read-out: Microsome Clint, mouse (MLM)
  microsomal CLint: 10 µL/min/mg
[11]; scaling factors, well-stirred model
  Pred. in vivo CLu from MLM: 39 mL/min/kg
[12]; SK-OV-3, 96 h, read-out: SK-OV-3 pGI50 ± SEM (n) (converted)
  GI50: 8.71 nM
[12]; SK-OV-3, 96 h, CellTiter-Blue, geometric mean, read-out: SK-OV-3 GI50
  GI50: 8.8 nM
[3]
  fub: 0.032
  Plasma, fup: 0.042 (0.071-0.024)
[3]; female, BALB/c, mouse, plasma
  blood plasma ratio at 30 min, 1 µM: 1.3
[13]
  chromatographic logD: 1.9
[14]
  microsomal CLint at 0.75 h, 1 µM: 43 µL/min/mg
[15]; CF1 mdr1a P-gp deficient (CF1-Abcb1amds), CF1^PGP-KO mice
  Vd: 3.6 L/kg
[15]; CF1 wild type, CF1^WT mice
  Vd: 3.2 L/kg
[16]; CF1^PGP-KO mice
  Extraction Ratio (% of HBF): 27 (21-34) %
  Cltb: 24 mL/min/kg and 24 (31-19) mL/min/kg
[16]; CF1^WT mice
  Extraction Ratio (% of HBF): 39 (46-33) %
  Cltb: 35 mL/min/kg and 35 (42-30) mL/min/kg
[17]; hepatocytes, n = 1, read-out: Mouse Heps CLint
  hepatocyte CLint at 1 h, 1 µM: 20 µL/min/1e6 cells
[17]; fraction unbound in assay assumed 0.4 or 0.2
  Pred. in vivo CLu from Heps: 460 ^h mL/min/kg
[18]; BALB/c mice
  Fmax: 62%
[18]; BALB/c mice, iv 5 mg/kg (18: 1 mg/kg), 90% CI
  iv Cltb: 34 (36–32) mL/min/kg
[18]; BALB/c mice, po, AUC^inf/24*fub
  Free Cav^0–24h: 0.66 nM
[18]; BALB/c mice, CLtb/fub
  CLu: 1100 mL/min/kg
[18]; BALB/c mice, Vss/fub
  Vdu: 80 L/kg
[18]; BALB/c mice, hepatic blood flow 90 mL/min/kg
  extraction ratio: 38%
[18]; female, BALB/c, mouse, in vivo, iv
  Vd: 2.6 L/kg
[18]; female, BALB/c, mouse, in vivo, iv, 5 mg/kg
  half-life at 24 h: 72 min
[18]; [26]
  Cmax: 130 nM
  Tmax at 24 h: 1.7 h
  bioavailability at 24 h: 11%
[18]; female, BALB/c, mouse, in vivo, po, 5 mg/kg, AUCu^0–6h, BALB/c mice, AUC*fub
  AUC: 0.014 µM·h
[18]; female, BALB/c, mouse, in vivo, po, 5 mg/kg, po AUC^0–6h, BALB/c mice, po 5 mg/kg, 90% CI
  AUC: 0.43 µM·h
[19]
  solubility kinetic at 2 h, 100 µM: 80 µM (≈ 46.4 µg/mL)

## COc1cccc2c1C(=O)c1c(O)c3c(c(O)c1C2=O)C[C@@](O)(C(=O)CO)C[C@@H]3O[C@H]1C[C@H](N)[C@H](O)[C@H](C)O1 [Doxorubicin]
[20]; Homo sapiens, + verapamil 2 µM
  GI50: 1.9 nM
[20]; Homo sapiens, no verapamil
  GI50: 310 nM
[20]; no verapamil
  GI50: 305 nM
[21]; + verapamil 2 µM
  GI50: 0.3 nM
[21]; no verapamil
  GI50: 0.4 nM

## Carboplatin
[22]
  pGI50±SEM (n): 5.8
[12]; 96 h, CellTiter-Blue, pGI50 = −log GI50 (M)
  SK-OV-3 pGI50 ± SEM (n): < 4.7
[23]
  pGI50±SEM (n): < 5.0
[24]
  pGI50 across the panel: < 6
[25]
  pGI50±SEM (n): < 4.7
